From article PMC3288053 (PLoS ONE, 2012)

Assays:
FXR: RXRα = target: T1, FXR: RXRα (Homo sapiens, UniProt P19793+Q96RI1); assay: Transient transfection luciferase assay in HEK293 cells (FXRE); assay type: cell-based; conditions: HEK293, 24 h
T1 construct: expressed in transfected cells; host or cells: HEK293
Protocol: (§1) HEK293 cells are transiently transfected by Lipo2000 respectively with RXRα, PPARγ, FXR, and LXRα plasmids plus pGL3-RXRE luciferase vector and renilla luciferase vector for 5 hours. Cells are then incubated with indicated concentrations of compounds for another 24 h and finally lysed. Luciferase activities are measured using Dual Luciferase Assay System kit. Rut dose-dependently activates (a) RXRα:RXRα and (b) PPARγ:RXRα activities. Rut has no effects on (c) FXR: RXRα and (d) LXRα:RXRα activities. Data are presented as means ± s.e.m (*P<0.05, **P<0.01) from three independent experiments.
(§2) HEK293 cells are transfected with luciferase reporter plus Renilla luciferase vector and other plasmids if needed for 5 hours, and cells are then incubated with indicated concentrations of compounds for another 24 h. Finally cells are lysed and luciferase activities are measured using Dual Luciferase Assay System kit. The results are presented as the fold activation relative to untreated cells after normalization with Renilla luciferase values. Each experiment is repeated at least twice, with each sample analyzed in triplicates.

C57/BL6 DIO male mice = assay: Diet-induced obese (DIO) mice model: fasting plasma glucose, OGTT, ITT, tolerability; assay type: in vivo
Protocol: All animals receive humane care, and the experimental procedures are performed according to the institutional ethical guidelines on animal care. C57/BL6 male mice are obtained from Shanghai SLAC Laboratory Animal Co. Ltd, and maintained under the temperature controlled at 25°C with a 12 h light-dark cycle. Eight-week-old male mice are fed regular chow or high fat diet (HFD, D12492i, from Research Diets Inc.) for 12 weeks. The DIO mice and normal lean mice are grouped randomly, and each group contains 7 mice. […] Individual body weight and fasting plasma glucose are measured weekly. Averaged daily food intake is measured twice a week. At the termination of the study, mice are dissected, and the weight of tissues (liver, kidney, spleen, heart, perirenal fat, and epididymis fat) is determined.
Male mice treated with compounds for 8 weeks are used for oral glucose tolerance test. After 6 h fasting, plasma glucose levels are measured and glucose (2 g/kg) is loaded. Blood samples are taken from the tail vein at different time points (0, 30, 90, and 120 min). In insulin tolerance tests, after 6 h fasting, plasma glucose levels are measured and insulin (1 U/kg) is administered by IP injection. Blood samples are taken at indicated time points (0, 15, 30, 45, 60, 90, and 120 min). Blood glucose levels are measured by ACCU-CHEK Active blood sugar testmeter (Roche). Statistical evaluation is performed via two-way ANOVA. Significant difference at P<0.05: *, P<0.01: **.

PTP1B (D48A) = target: T2, PTP1B (D48A) (Homo sapiens, UniProt P18031, D48A); assay: PTP enzyme inhibition assay, D48A mutant; assay type: biochemical
T2 construct: pGEX4T-1-PTP1B1–321; GST (N); made in house; host or cells: E. coli (BL21 (DE3) stated for the wild-type plasmid)
T2 sequence (P18031 1-321 D48A): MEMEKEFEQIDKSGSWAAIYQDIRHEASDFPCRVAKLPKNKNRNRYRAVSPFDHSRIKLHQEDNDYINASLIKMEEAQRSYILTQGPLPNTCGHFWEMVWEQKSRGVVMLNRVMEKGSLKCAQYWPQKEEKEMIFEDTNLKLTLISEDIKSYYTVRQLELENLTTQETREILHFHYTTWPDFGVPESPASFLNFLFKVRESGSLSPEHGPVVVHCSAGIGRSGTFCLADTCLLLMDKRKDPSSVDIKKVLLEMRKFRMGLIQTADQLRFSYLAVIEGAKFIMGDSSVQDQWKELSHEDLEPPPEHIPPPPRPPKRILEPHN
Protocol: The plasmid pGEX4T1-PTP1B (D48A) is generated by site-directed mutagenesis with pGEX4T1-PTP1B (WT) as template. The primer pairs are sense: 5′-[…]-3′ and antisense: 5′-[…]-3′.
The enzymatic activities of the recombinant PTPs are measured at 25°C using pNPP as substrate. The initial velocities of enzymatic reactions are determined by continuously measuring the absorbance at 405 nm every 15 s using a microplate spectrophotometer (Bio-Rad). […] To determine the inhibition type, each concentration of Rut (0, 50 and 75 µM) is incubated with PTP1B (0.3 µM) in reaction buffer (50 mM HEPES, pH7.0, 1 mM EDTA, and 100 mM NaCl) for 10 min and the reactions are initiated by different concentrations of pNPP (0.5–10 mM). The inhibition type is determined using double-reciprocal plots. In determination of the selectivity of Rut against PTPs, the result is referred as no inhibition when 100 µM Rut inhibits no enzyme activity. The same reaction systems are designed for all PTPs including PTP1B.

LXRα:RXRα = target: T3, LXRα:RXRα (Homo sapiens, UniProt P19793+Q13133); assay: Transient transfection luciferase assay in HEK293 cells (LXRE); assay type: cell-based; conditions: HEK293, 24 h
T3 construct: expressed in transfected cells; host or cells: HEK293
T3 sequence (Q13133 whole entry): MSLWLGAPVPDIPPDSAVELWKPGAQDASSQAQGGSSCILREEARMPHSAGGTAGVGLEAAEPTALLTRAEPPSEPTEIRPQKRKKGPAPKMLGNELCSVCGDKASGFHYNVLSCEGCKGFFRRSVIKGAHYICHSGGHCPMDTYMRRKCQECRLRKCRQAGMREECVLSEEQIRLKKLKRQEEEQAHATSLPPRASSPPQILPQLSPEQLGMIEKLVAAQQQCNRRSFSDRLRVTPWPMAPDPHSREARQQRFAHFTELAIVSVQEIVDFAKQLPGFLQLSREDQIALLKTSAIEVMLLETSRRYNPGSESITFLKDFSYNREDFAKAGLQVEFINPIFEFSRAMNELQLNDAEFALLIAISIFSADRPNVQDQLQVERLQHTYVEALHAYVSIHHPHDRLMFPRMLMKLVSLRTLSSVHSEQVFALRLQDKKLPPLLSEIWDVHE
T3 sequence (P19793 whole entry): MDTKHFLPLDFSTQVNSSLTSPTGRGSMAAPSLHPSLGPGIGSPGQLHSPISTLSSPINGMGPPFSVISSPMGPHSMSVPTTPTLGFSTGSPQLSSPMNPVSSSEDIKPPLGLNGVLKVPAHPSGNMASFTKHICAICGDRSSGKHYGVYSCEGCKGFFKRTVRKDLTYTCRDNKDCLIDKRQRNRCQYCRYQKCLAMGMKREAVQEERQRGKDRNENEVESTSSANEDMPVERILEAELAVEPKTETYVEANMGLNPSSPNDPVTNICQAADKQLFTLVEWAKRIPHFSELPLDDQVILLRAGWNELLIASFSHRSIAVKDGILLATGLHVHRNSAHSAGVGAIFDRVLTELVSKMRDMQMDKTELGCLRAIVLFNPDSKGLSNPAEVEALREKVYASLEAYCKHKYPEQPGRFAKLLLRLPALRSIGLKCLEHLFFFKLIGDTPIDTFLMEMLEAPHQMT
Protocol: as §1, §2

3T3-L1 adipocytes = assay: GLUT4 translocation by immunofluorescence in 3T3-L1 adipocytes; assay type: cell-based; conditions: Rut 20 µM, insulin 17 nM
Protocol: For GLUT4 translocation assay in 3T3-L1 adipocytes, the cells are fully differentiated (the 10th day after MDI stimulation), and seeded onto 24-well plates. After cultured in serum-free medium for 8 h, cells are incubated with Rut for 2 h and insulin for 10 min, and then rinsed with PBS, fixed with 4% formaldehyde for 10 min, and permeated with 0.2% Triton X-100 in PBS for 10 min. Cells are subsequently washed with PBS and 3% bovine serum albumin for 20 min, and sequentially incubated with primary antibody (Abcam GLUT4 antibody) for 1 h and secondary antibody (Alexa Fluor 488 conjuncted anti-mouse antibody) for another 1 h. Finally, the glass-slips are washed with PBS for examination using OLYMPUS FV-1000 confocal microscope. All pictures are made in the same time experiment.

[1] = target: T4, RXRα-LBD/SRC1_613–773 interaction (Homo sapiens, UniProt P19793); assay: SPR SRC1 recruitment assay; assay type: binding; conditions: 1 µM RXRα-LBD incubated with compound 1 hour
T4 construct: His-tag (N); made in house; host or cells: E. coli BL21 (DE3)
T4 sequence (P19793 227-458 limits assumed): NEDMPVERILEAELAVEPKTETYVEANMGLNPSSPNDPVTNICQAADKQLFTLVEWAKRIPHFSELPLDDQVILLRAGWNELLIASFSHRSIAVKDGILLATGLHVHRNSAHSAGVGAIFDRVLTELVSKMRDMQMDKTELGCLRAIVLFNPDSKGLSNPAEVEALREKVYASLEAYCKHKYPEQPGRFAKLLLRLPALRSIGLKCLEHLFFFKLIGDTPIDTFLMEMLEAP
T4 sequence (Q15788 613-773 partner limits assumed): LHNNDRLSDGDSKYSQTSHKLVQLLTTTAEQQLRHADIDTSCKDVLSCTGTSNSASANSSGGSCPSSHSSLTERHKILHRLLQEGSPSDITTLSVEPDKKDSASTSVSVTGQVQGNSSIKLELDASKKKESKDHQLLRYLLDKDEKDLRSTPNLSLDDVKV
Protocol: (§3) Binding affinities of Rut towards proteins are analyzed using SPR technology based Biacore 3000 instrument (GE Healthcare). In the assay, proteins are immobilized to CM5 chips using a standard amine-coupling procedure (Biacore manual). The proteins to be covalently bound to the chips are diluted in 10 mM sodium acetate buffer (pH4.5) to a final concentration of 0.10 mg/ml. Before experiments, baseline is equilibrated with a continuous flow of running buffer (10 mM HEPES, 150 mM NaCl, 3 mM EDTA, and 0.005% (v/v) surfactant P20, pH7.4) for 2 hours. Subsequently, Rut with a gradient of concentrations is injected to the channels at a flow rate of 20 µL/min for 60 seconds, followed by disassociation for 120 seconds. The 1∶1 Langmuir binding fitting model in BIAevaluation software version 3.1 (Biacore) is used to determine the equilibrium dissociation constants (K Ds) of compounds. […] Different concentrations of PPARγ-LBD or RXRα-LBD are injected to the channel at a flow rate of 20 µL/min for 60 s, followed by disassociation for 120 s.

[2] = target: T5, PPARγ-LBD/SRC1_613–773 interaction (Homo sapiens, UniProt P37231); assay: SPR SRC1 recruitment assay; assay type: binding; conditions: 1 µM PPARγ-LBD incubated with compound 1 hour
T5 construct: pET15b-PPARγ-LBD202–477; His-tag (N); made in house; host or cells: E. coli BL21 (DE3)
T5 sequence (P37231 230-505): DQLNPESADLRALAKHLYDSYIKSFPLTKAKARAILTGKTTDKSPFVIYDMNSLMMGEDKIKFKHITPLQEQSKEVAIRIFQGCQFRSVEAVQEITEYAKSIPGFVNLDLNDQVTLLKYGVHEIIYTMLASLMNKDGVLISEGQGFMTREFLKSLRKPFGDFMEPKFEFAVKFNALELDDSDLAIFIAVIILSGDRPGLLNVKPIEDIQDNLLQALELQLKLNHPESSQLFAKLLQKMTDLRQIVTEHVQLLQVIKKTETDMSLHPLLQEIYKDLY
T5 sequence (Q15788 613-773 partner limits assumed): as the sequence (Q15788 613-773 partner limits assumed) above
Protocol: as §3

T1 sequence (Q96RI1 whole entry): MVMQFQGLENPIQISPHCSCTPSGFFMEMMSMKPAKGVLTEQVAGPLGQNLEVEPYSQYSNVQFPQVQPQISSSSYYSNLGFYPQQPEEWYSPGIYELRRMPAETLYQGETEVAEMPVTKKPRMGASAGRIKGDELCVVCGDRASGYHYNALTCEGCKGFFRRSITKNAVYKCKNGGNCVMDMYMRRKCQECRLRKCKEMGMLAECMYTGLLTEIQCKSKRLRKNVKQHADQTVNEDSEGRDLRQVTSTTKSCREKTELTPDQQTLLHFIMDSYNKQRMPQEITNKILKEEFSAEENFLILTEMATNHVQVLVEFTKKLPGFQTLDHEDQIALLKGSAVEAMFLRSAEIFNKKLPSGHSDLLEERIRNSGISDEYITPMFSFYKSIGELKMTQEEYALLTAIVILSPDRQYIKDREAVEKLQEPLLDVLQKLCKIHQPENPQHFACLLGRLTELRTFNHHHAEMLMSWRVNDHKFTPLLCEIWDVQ
T1 sequence (P19793 whole entry): as the sequence (P19793 whole entry) above

C=CC(C)(C)c1cc2cc3c(cc2oc1=O)O[C@H](C(C)(C)OC(C)=O)C3 [(+)-Rutamarin]
activity of FXR-response element (FXRE) (FXR: RXRα): without influencing | fasting plasma glucose level (C57/BL6 DIO male mice; DIO mice, Rut 2 mg/kg IP, 2 weeks): efficiently improve | fasting plasma glucose vs control obese group (C57/BL6 DIO male mice; DIO mice, Rut 10 mg/kg IP daily, 8 weeks): significantly lower | insulin tolerance test, glucose elimination vs vehicle (C57/BL6 DIO male mice; DIO mice, Rut 10 mg/kg, insulin 1 U/kg IP): eliminate glucose at a faster rate | plasma glucose after glucose challenge (glucose tolerance test) vs vehicle (C57/BL6 DIO male mice; DIO mice, Rut 10 mg/kg, oral glucose 2 g/kg): much lower | food consumption vs vehicle-treated mice (C57/BL6 DIO male mice; Rut 10 mg/kg IP): not significantly different | body weights (C57/BL6 DIO male mice; Rut 10 mg/kg IP, same course in vehicle-treated mice): slightly decrease in the first four weeks | insulin tolerance test vs vehicle (C57/BL6 DIO male mice; lean mice, Rut 10 mg/kg): no obvious difference | fasting plasma glucose vs vehicle (C57/BL6 DIO male mice; lean mice, Rut 10 mg/kg IP daily, 8 weeks): no obvious difference | IC50 (PTP1B (D48A)): 14.8 µM | activity of LXR-response element (LXRE) (LXRα:RXRα): without influencing | GLUT4 translocation in fully differentiated 3T3-L1 adipocytes (3T3-L1 adipocytes): significantly induces | effect on interaction between RXRα-LBD and SRC1 [1]: efficiently enhances | effect on interaction between PPARγ-LBD and SRC1 [2]: cannot enhance
